The record followed here is patent publication US10434083B2, “Transmammary delivery of cyclooxygenase-2 inhibitors for analgesia in neonates” (Iowa State University Research Foundation, Inc., priority 2018, dated 2019).

The nature of this series: Plasma firocoxib in nursing piglets after transmammary delivery (Example 1). The note with it: piglets nursing sow given 1.5 mg/kg IM; from 2 hours post-exposure to end of study (48 h). It counts as in vivo, swine. Here is the method: Blood (sodium heparin tubes) was collected from the sow via jugular venipuncture at the following time points after drug administration via injection to the sow: 0, 1, 2, 3, 4, 6, 8, 10, 12, 24, 36 and 48 hours. The piglets had blood collected via jugular venipuncture at the following timepoints following sow drug administration via injection:
Piglets 1-3 was bled at times 0, 3, 8 and 24 hours
Piglets 4-6 was bled at times 1, 4, 10 and 36 hours
Piglets 7-9 was bled at times 2, 6, 12 and 48 hours.
Approximately 10 mL of blood was collected from the sow at each time point, and approximately 5 mL was collected from each piglet at each time point. Following blood collection at the 48 hour time point, the sow and piglets was euthanized and disposed of per study site procedures. […]
Plasma concentrations of firocoxib were measured with high-pressure liquid chromatography-tandem mass spectrometry (Shimadzu Prominence, Shimadzu Scientific Instruments, Columbia, Md., USA). […]
The standard curve of firocoxib concentration determined using porcine plasma was linear from 0.020 to 5.0 μg/mL and was accepted when the correlation coefficient exceeded 0.99 and measured values were within 15% of the actual values. The lower limit of quantification, defined as the lowest concentration on a linear standard curve with predicted concentrations within 15% of the actual concentration, was 0.020 μg/mL.

Structures are written as SMILES.

For `CC1(C)OC(=O)C(OCC2CC2)=C1c1ccc(S(C)(=O)=O)cc1` [firocoxib], the “plasma drug concentrations in piglets” value is recorded as “above 10 ng/mL”.
